Test results taken from BigSolDB 2.1.

CC(C)(C)NSc1nc2ccccc2s1 showed a solubility (mole fraction) (in ethanol, 273.2 K) of 0.00951, a solubility (mole fraction) (in ethanol, 278.2 K) of 0.0111 and a solubility (mole fraction) (in ethanol, 283.2 K) of 0.0133. The solubility (mole fraction) (in ethanol, 288.2 K) was 0.0157, the solubility (mole fraction) (in ethanol, 293.2 K) was 0.0198 and the solubility (mole fraction) (in ethanol, 298.2 K) was 0.0236. The solubility (mole fraction) (in ethanol, 303.2 K) was 0.0278, the solubility (mole fraction) (in ethanol, 308.2 K) was 0.0344 and the solubility (mole fraction) (in ethanol, 313.2 K) was 0.0419. It also gave a solubility (mole fraction) (in isopropanol, 273.2 K) of 0.00844, a solubility (mole fraction) (in isopropanol, 278.2 K) of 0.00938 and a solubility (mole fraction) (in isopropanol, 283.2 K) of 0.0122. For the same compound, the solubility (mole fraction) (in isopropanol, 288.2 K) was 0.015, the solubility (mole fraction) (in isopropanol, 293.2 K) was 0.0176 and the solubility (mole fraction) (in isopropanol, 298.2 K) was 0.0208. It also gave a solubility (mole fraction) (in isopropanol, 303.2 K) of 0.025, a solubility (mole fraction) (in isopropanol, 308.2 K) of 0.0298 and a solubility (mole fraction) (in isopropanol, 313.2 K) of 0.0352. For the same compound, the solubility (mole fraction) (in methanol, 273.2 K) was 0.00591, the solubility (mole fraction) (in methanol, 278.2 K) was 0.00707 and the solubility (mole fraction) (in methanol, 283.2 K) was 0.00834. It also gave a solubility (mole fraction) (in methanol, 288.2 K) of 0.00991, a solubility (mole fraction) (in methanol, 293.2 K) of 0.0123 and a solubility (mole fraction) (in methanol, 298.2 K) of 0.0148. The solubility (mole fraction) (in methanol, 303.2 K) was 0.0178, the solubility (mole fraction) (in methanol, 308.2 K) was 0.0219 and the solubility (mole fraction) (in methanol, 313.2 K) was 0.0266. It also gave a solubility (mole fraction) (in n-butanol, 273.2 K) of 0.0177, a solubility (mole fraction) (in n-butanol, 278.2 K) of 0.0202 and a solubility (mole fraction) (in n-butanol, 283.2 K) of 0.0237. The solubility (mole fraction) (in n-butanol, 288.2 K) was 0.028, the solubility (mole fraction) (in n-butanol, 298.2 K) was 0.0375 and the solubility (mole fraction) (in n-butanol, 303.2 K) was 0.0444. The solubility (mole fraction) (in n-butanol, 308.2 K) was 0.0524, the solubility (mole fraction) (in n-butanol, 313.2 K) was 0.061 and the solubility (mole fraction) (in tert-butylamine, 273.2 K) was 0.0952. For the same compound, the solubility (mole fraction) (in tert-butylamine, 278.2 K) was 0.107, the solubility (mole fraction) (in tert-butylamine, 283.2 K) was 0.115 and the solubility (mole fraction) (in tert-butylamine, 288.2 K) was 0.124. It also gave a solubility (mole fraction) (in tert-butylamine, 293.2 K) of 0.135, a solubility (mole fraction) (in tert-butylamine, 298.2 K) of 0.149 and a solubility (mole fraction) (in tert-butylamine, 303.2 K) of 0.165. It also gave a solubility (mole fraction) (in tert-butylamine, 308.2 K) of 0.176, a solubility (mole fraction) (in tert-butylamine, 313.2 K) of 0.198 and a solubility (mole fraction) (in toluene, 273.2 K) of 0.0273. For the same compound, the solubility (mole fraction) (in toluene, 278.2 K) was 0.0355, the solubility (mole fraction) (in toluene, 283.2 K) was 0.0422 and the solubility (mole fraction) (in toluene, 288.2 K) was 0.0518. It also gave a solubility (mole fraction) (in toluene, 293.2 K) of 0.0605, a solubility (mole fraction) (in toluene, 298.2 K) of 0.0691 and a solubility (mole fraction) (in toluene, 303.2 K) of 0.084. It also gave a solubility (mole fraction) (in toluene, 308.2 K) of 0.102 and a solubility (mole fraction) (in toluene, 313.2 K) of 0.122.
